Data: article PMC12303383, “The heme-regulated inhibitor kinase Hri1 is activated in response to aminolevulinic acid deficiency in Schizosaccharomyces pombe” (PLOS Genetics, 2025)

How the values were obtained:
Hri2 = biological target: T1, Hri2 (Schizosaccharomyces pombe, UniProt Q9UTE5); assay: differential absorbance spectral titration (Soret peak, […] nm) with purified protein; assay type: binding
T1 construct: MBP-tagged wild-type Hri2 expressed in E. coli, dephosphorylated with lambda phosphatase
T1 sequence (Q9UTE5 1-639): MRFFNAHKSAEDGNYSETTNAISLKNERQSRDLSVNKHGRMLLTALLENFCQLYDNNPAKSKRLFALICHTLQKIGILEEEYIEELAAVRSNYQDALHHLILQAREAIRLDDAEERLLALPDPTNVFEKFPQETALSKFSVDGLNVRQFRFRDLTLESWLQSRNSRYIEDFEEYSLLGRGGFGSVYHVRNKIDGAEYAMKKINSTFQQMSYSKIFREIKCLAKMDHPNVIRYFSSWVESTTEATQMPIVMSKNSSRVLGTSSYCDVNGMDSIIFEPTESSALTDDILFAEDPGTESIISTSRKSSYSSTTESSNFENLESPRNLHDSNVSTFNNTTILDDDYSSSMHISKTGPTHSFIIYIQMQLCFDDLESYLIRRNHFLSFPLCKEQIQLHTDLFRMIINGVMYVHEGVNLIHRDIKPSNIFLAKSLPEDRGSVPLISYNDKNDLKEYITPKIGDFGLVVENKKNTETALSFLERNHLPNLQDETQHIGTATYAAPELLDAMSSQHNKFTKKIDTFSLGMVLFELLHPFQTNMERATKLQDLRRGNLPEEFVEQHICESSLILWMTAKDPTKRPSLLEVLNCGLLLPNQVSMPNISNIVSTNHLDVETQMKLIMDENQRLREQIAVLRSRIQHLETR

[1] = biological target: T2, Hri1 (heme-regulated inhibitor kinase 1) (Schizosaccharomyces pombe, UniProt O13889); assay: as above; assay type: binding
T2 construct: MBP-tagged wild-type Hri1 expressed in E. coli, dephosphorylated with lambda phosphatase
T2 sequence (O13889 1-704): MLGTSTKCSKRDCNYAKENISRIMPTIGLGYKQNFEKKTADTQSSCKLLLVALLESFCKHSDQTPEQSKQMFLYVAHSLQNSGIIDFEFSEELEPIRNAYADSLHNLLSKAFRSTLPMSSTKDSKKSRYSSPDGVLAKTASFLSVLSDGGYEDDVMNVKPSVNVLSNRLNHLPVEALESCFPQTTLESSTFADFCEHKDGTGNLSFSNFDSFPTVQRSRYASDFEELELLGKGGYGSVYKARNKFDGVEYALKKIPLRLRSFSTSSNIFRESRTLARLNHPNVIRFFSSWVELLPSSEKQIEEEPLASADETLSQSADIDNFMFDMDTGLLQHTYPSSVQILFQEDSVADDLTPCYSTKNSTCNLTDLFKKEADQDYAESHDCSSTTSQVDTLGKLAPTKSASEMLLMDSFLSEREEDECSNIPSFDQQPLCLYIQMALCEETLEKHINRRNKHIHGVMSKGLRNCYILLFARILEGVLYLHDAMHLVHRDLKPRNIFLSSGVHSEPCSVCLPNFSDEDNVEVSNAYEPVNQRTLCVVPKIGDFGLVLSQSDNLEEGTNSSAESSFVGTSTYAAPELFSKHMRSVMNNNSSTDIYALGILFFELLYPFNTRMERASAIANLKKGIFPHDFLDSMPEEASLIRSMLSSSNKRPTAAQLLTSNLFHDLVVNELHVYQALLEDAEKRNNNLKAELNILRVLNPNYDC

Question: Which Kd (Hri2) does the source give for `C=CC1=C(C)C2=Cc3c(C=C)c(C)c4[n]3[Fe]([Cl])[n]3c(c(C)c(CCC(=O)O)c3=CC3=NC(=C4)C(C)=C3CCC(=O)O)=CC1=N2` [hemin] here?
Answer: 1050 nM

Question: What about the Kd [1] of the same molecule?
Answer: 110 nM
